The results in this text go back to the PolyMetriX glass transition set.

Structures are written as SMILES.

`*C(=O)Nc1ccc(Oc2ccc(NC(=O)c3ccc4c(c3)C(=O)N(c3ccc(Cc5ccc(N6C(=O)c7ccc(*)cc7C6=O)cc5)cc3)C4=O)cc2)cc1` (repeat unit) displayed a glass transition temperature of 251.00 °C.

In turn, `*C(=O)Nc1ccc(Oc2ccc(NC(=O)c3ccc4c(c3)C(=O)N(c3ccc(Oc5ccc(C6(c7ccc(Oc8ccc(N9C(=O)c%10ccc(*)cc%10C9=O)cc8)cc7)CC7CC6C6CCCC76)cc5)cc3)C4=O)cc2)cc1` (repeat unit) came in with a glass transition temperature of 250.00 °C. Next, `*C(=O)Nc1ccc(Oc2ccc(NC(=O)c3ccc4c(c3)C(=O)N(c3ccc(Oc5ccc(N6C(=O)c7ccc(*)cc7C6=O)cc5)cc3)C4=O)cc2)cc1` (repeat unit): 282.00 °C. As for `*C(=O)Nc1ccc(Oc2ccc(NC(=O)c3ccc4c(c3)C(=O)N(c3ccc(Oc5ccc(N6C(=O)c7ccc(*)cc7C6=O)cc5-c5ccccc5)c(-c5ccccc5)c3)C4=O)cc2)cc1` (repeat unit), the figure is 345.00 °C; as for `*C(=O)Nc1ccc(Oc2ccc(NC(=O)c3ccc4c(c3)C(=O)N(c3ccc(Oc5ccc(N6C(=O)c7ccc(*)cc7C6=O)cc5-c5ccccc5)c(-c5ccccc5)c3)C4=O)cc2-c2ccccc2)c(-c2ccccc2)c1` (repeat unit), 369.00 °C. As for `*C(=O)Nc1ccc(Oc2cccc(NC(=O)c3ccc4c(c3)C(=O)N(c3ccc(Oc5ccc(C6(c7ccc(Oc8ccc(N9C(=O)c%10ccc(*)cc%10C9=O)cc8)cc7)NC(=O)c7ccccc76)cc5)cc3)C4=O)c2)cc1` (repeat unit), the figure is 302.00 °C. The compound `*C(=O)Nc1ccc(Oc2ccccc2-c2ccccc2Oc2ccc(NC(=O)c3ccc4c(c3)C(=O)N(c3ccc(Oc5ccc(Oc6ccc(N7C(=O)c8ccc(*)cc8C7=O)cc6)cc5)cc3)C4=O)cc2)cc1` (repeat unit) had a glass transition temperature of 238.00 °C.

The compound `*C(=O)Nc1ccc(Oc2ccccc2-c2ccccc2Oc2ccc(NC(=O)c3ccc4c(c3)C(=O)N(c3cccc(N5C(=O)c6ccc(*)cc6C5=O)c3)C4=O)cc2)cc1` (repeat unit) had a glass transition temperature of 237.00 °C. As for `*C(=O)Nc1ccc(S(=O)(=O)c2ccc(NC(=O)c3ccc4c(c3)C(=O)N(c3cc(-c5nc6ccccc6s5)cc(N5C(=O)c6ccc(*)cc6C5=O)c3)C4=O)cc2)cc1` (repeat unit), the figure is 357.00 °C. `*C(=O)Nc1ccc(S(=O)(=O)c2ccc(NC(=O)c3ccc4c(c3)C(=O)N(c3ccc(-c5sc(-c6ccc(N7C(=O)c8ccc(*)cc8C7=O)cc6)c(-c6ccccc6)c5-c5ccccc5)cc3)C4=O)cc2)cc1` (repeat unit) had a glass transition temperature of 340.00 °C. As for `*C(=O)Nc1cccc(C(=O)Nc2cccc(NC(=O)c3ccc4[nH]c(-c5ccc(-c6nc7cc(*)ccc7[nH]6)cc5)nc4c3)c2)c1` (repeat unit), the figure is 312.00 °C; as for `*C(=O)Nc1cccc(N2C(=O)CC(N3C(=O)c4ccc(*)cc4C3=O)C2=O)c1` (repeat unit), 130.00 °C. Next, `*Nc1ccc(*)cc1` (repeat unit): 75.30 °C; `*Nc1cccc(C(=O)c2ccc(NC(=O)c3cccc(C(=O)c4ccc(C(*)=O)cc4)c3)cc2)c1` (repeat unit): 215.00 °C. Next, `*Oc1ccc(C(=O)Nc2ccc(S(=O)(=O)c3ccc(NC(=O)c4ccc(Oc5ccc(C(=O)c6ccc(S(=O)(=O)c7ccc(C(=O)c8ccc(*)cc8)cc7)cc6)cc5)cc4)cc3)cc2)cc1` (repeat unit): 260.00 °C; `*Oc1ccc(C(=O)c2ccc(C(=O)c3ccc(Oc4ccc(Cc5ccc(*)cc5)cc4)cc3)cc2)cc1` (repeat unit): 120.00 °C; `*Oc1ccc(C(=O)c2ccc(C(=O)c3ccc(Oc4cccc(Cc5cccc(*)c5)c4)cc3)cc2)cc1` (repeat unit): 122.00 °C. As for `*Oc1ccc(C(=O)c2cccc(NC(=O)c3cccc(C(=O)Nc4ccc(C(=O)c5ccc(*)cc5)cc4)c3)c2)cc1` (repeat unit), the glass transition temperature turned out to be 204.00 °C.

In turn, `*Oc1ccc(Oc2ccc(C(=O)Nc3ccc(Oc4ccc(S(=O)(=O)c5ccc(Oc6ccc(NC(=O)c7ccc(*)cc7)cc6)cc5)cc4)cc3)cc2)cc1` (repeat unit) displayed a glass transition temperature of 220.00 °C. Next, `*Oc1ccc(Oc2ccc(C(=O)c3cccc(NC(=O)c4cccc(C(=O)Nc5cccc(C(=O)c6ccc(*)cc6)c5)c4)c3)cc2)cc1` (repeat unit): 202.00 °C; `*Oc1ccc(Oc2ccc(NC(=O)c3ccc(Oc4ccc(Oc5ccc(C(=O)Nc6ccc(*)cc6)cc5)cc4-c4ccccc4)cc3)cc2)cc1` (repeat unit): 209.00 °C.

As to `*Oc1ccc(Oc2ccc(NC(=O)c3ccc(Oc4ccc(Oc5ccc(C(=O)Nc6ccc(*)cc6)cc5)cc4-c4ccccc4)cc3)cc2)cc1-c1ccccc1` (repeat unit), the glass transition temperature was 200.50 °C. As for `*Oc1ccc(S(=O)(=O)c2ccc(Oc3ccc(NC(=O)c4cccc(C(=O)Nc5ccc(*)cc5)c4)cc3)cc2)cc1` (repeat unit), the figure is 260.00 °C.

`*Oc1cccc(Oc2ccc(NC(=O)c3ccc(Oc4cccc(Oc5ccc(C(=O)Nc6ccc(*)cc6)cc5)c4)cc3)cc2)c1` (repeat unit) came in with a glass transition temperature of 176.50 °C. `*Oc1cccc2ccc(Oc3ccc(NC(=O)c4ccc(Oc5ccc(C(=O)Nc6ccc(*)cc6)cc5)cc4)cc3)cc12` (repeat unit) showed a glass transition temperature of 236.00 °C. Next, `*c1ccc(-c2cc(-c3ccc(-c4ccccc4)cc3)cc(-c3ccc(N4C(=O)c5ccc(NC(=O)Nc6ccc(Oc7ccccc7-c7ccccc7Oc7ccc(NC(=O)Nc8ccc9c(c8)C(=O)N(*)C9=O)cc7)cc6)cc5C4=O)cc3)n2)cc1` (repeat unit): 249.00 °C; `*c1ccc(-c2cc(-c3ccc(-c4ccccc4)cc3)cc(-c3ccc(N4C(=O)c5ccc(NC(=O)Nc6cccc(NC(=O)Nc7ccc8c(c7)C(=O)N(*)C8=O)n6)cc5C4=O)cc3)n2)cc1` (repeat unit): 248.00 °C. Next, `*c1ccc(-c2ccc(-c3nc4cc(Oc5ccc(NC(=O)c6ccc7c(c6)C(=O)N(c6ccc(C(c8ccc(N9C(=O)c%10ccc(C(=O)Nc%11ccc(Oc%12ccc%13nc(-c%14ccccc%14)c(*)nc%13c%12)cc%11)cc%10C9=O)cc8)(C(F)(F)F)C(F)(F)F)cc6)C7=O)cc5)ccc4nc3-c3ccccc3)cc2)cc1` (repeat unit): 290.00 °C. Compound `*c1ccc(-c2nc3cc(Oc4ccc(NC(=O)c5ccc6c(c5)C(=O)N(c5ccc(C(c7ccc(N8C(=O)c9ccc(C(=O)Nc%10ccc(Oc%11ccc%12nc(-c%13ccccc%13)c(*)nc%12c%11)cc%10)cc9C8=O)cc7)(C(F)(F)F)C(F)(F)F)cc5)C6=O)cc4)ccc3nc2-c2ccccc2)cc1` (repeat unit) registered a glass transition temperature of 293.00 °C. Next, `*c1ccc(Oc2ccc(-c3nc4cc(Oc5ccc(NC(=O)c6cc(C(=O)Nc7ccc(Oc8ccc9nc(-c%10ccccc%10)c(*)nc9c8)cc7)cc(N7C(=O)c8c(Cl)c(Cl)c(Cl)c(Cl)c8C7=O)c6)cc5)ccc4nc3-c3ccccc3)cc2)cc1` (repeat unit): 295.00 °C. For `*c1ccc(Oc2ccc(-c3nc4cc(Oc5ccc(NC(=O)c6cc(C(=O)Nc7ccc(Oc8ccc9nc(-c%10ccccc%10)c(*)nc9c8)cc7)cc(N7C(=O)c8ccccc8C7=O)c6)cc5)ccc4nc3-c3ccccc3)cc2)cc1` (repeat unit), the glass transition temperature was found to be 260.00 °C.

`*c1ccc(Oc2ccc(C(=O)c3ccc(C(=O)c4ccc(Oc5ccc(-c6nc7ccccc7n6-c6ccc(-n7c(*)nc8ccccc87)cc6)cc5)cc4)cc3)cc2)cc1` (repeat unit) had a glass transition temperature of 238.00 °C. Next, `*c1ccc(Oc2ccc3ccccc3c2-c2c(Oc3ccc(N4C(=O)c5ccc(NC(=O)Nc6ccc(Oc7ccccc7-c7ccccc7Oc7ccc(NC(=O)Nc8ccc9c(c8)C(=O)N(*)C9=O)cc7)cc6)cc5C4=O)cc3)ccc3ccccc23)cc1` (repeat unit): 285.00 °C.

Compound `*c1ccc(Oc2ccc3ccccc3c2-c2c(Oc3ccc(N4C(=O)c5ccc(NC(=O)Nc6cccc(NC(=O)Nc7ccc8c(c7)C(=O)N(*)C8=O)n6)cc5C4=O)cc3)ccc3ccccc23)cc1` (repeat unit) showed a glass transition temperature of 283.00 °C.

`*c1ccc(Oc2ccc3ccccc3c2-c2c(Oc3ccc(N4C(=O)c5ccc(NC(=O)Nc6cccc7c(NC(=O)Nc8ccc9c(c8)C(=O)N(*)C9=O)cccc67)cc5C4=O)cc3)ccc3ccccc23)cc1` (repeat unit) gave a glass transition temperature of 297.00 °C.

The compound `*c1ccc2c(c1)C(=O)N(c1cccc(C(=O)Nc3ccc(Oc4ccc(NC(=O)c5cccc(N6C(=O)c7ccc(C(*)(C(F)(F)F)C(F)(F)F)cc7C6=O)c5)cc4)cc3)c1)C2=O` (repeat unit) yielded a glass transition temperature of 298.00 °C. The compound `*c1ccc2c(c1)C(=O)N(c1cccc(C(=O)Nc3ccc(Oc4ccc(Oc5ccc(NC(=O)c6cccc(N7C(=O)c8ccc(C(*)(C(F)(F)F)C(F)(F)F)cc8C7=O)c6)cc5)cc4)cc3)c1)C2=O` (repeat unit) returned a glass transition temperature of 283.00 °C. `*c1ccc2c(c1)C(=O)N(c1cccc(C(=O)Nc3ccc(Oc4cccc(Oc5ccc(NC(=O)c6cccc(N7C(=O)c8ccc(C(*)(C(F)(F)F)C(F)(F)F)cc8C7=O)c6)cc5)c4)cc3)c1)C2=O` (repeat unit) gave a glass transition temperature of 264.00 °C. As for `*c1cccc(NC(=O)c2ccc(OCCOCCOCCOCCOCCOc3ccc(C(=O)Nc4ccc5[nH]c(*)nc5c4)cc3)cc2)c1` (repeat unit), the figure is 140.00 °C. As for `*c1cccc(NC(=O)c2ccc(OCCOc3ccc(C(=O)Nc4ccc5[nH]c(*)nc5c4)cc3)cc2)c1` (repeat unit), the figure is 250.00 °C; as for `*c1cccc(P(=O)(c2ccccc2)c2cccc(N3C(=O)c4ccc(NC(=O)OCCOc5ccc(C(c6ccc(OCCOC(=O)Nc7ccc8c(c7)C(=O)N(*)C8=O)cc6)(C(F)(F)F)C(F)(F)F)cc5)cc4C3=O)c2)c1` (repeat unit), 214.00 °C; as for `*c1cccc(P(=O)(c2ccccc2)c2cccc(N3C(=O)c4ccc(NC(=O)OCCOc5ccc(P(=O)(c6ccccc6)c6ccc(OCCOC(=O)Nc7ccc8c(c7)C(=O)N(*)C8=O)cc6)cc5)cc4C3=O)c2)c1` (repeat unit), 218.00 °C.
